Experimental data as given in US20120183635A1, “ROSEMARY EXTRACTS, DIETARY AND PHARMACEUTICAL COMPOSITIONS CONTAINING THEM AND THEIR USES” (DSM IP ASSETS B.V., priority 2006, published 2012).

Test system: duration of immobility
Experiment: Porsolt's Forced Swim Test (FST) in the mouse
Assay type: in vivo
Details: 32 mg/kg p.o., −24, −5, −1 h
Protocol: Mice were individually placed in a cylinder (Height=24.5 cm, Diameter=19.5 cm) containing 13.5 cm water (22° C.) from which they could not escape. The mice were placed in the water for 6 min and the duration of immobility during the last 4 min was measured. Ten mice were studied per group. Rosemary extract (dissolved in corn oil) was evaluated at 272, 409 and 545 mg/kg body weight, administered orally 24, 5, and 1 h before the test, and compared with a vehicle-treated control group. Imipramine (32 mg/kg, p.o.; dissolved in distilled water), administered under the same experimental conditions, was used as reference substance. Data were analysed by comparing all groups using one-way Analysis of Variance (ANOVA) and the Bonferroni post-hoc test.

## CN(C)CCCN1c2ccccc2CCc2ccccc21 [Imipramine, imipramine]
  DURATION OF IMMOBILITY % change from control: −59%
  DURATION OF IMMOBILITY (as % total test time) mean ± S.D.: 17.75 ± 9.92 % total test time
